Experimental findings from PubChem BioAssay AID179 (DTP/NCI, 2004) are described below.

One may read the EC50 as the concentration giving half of the maximal effect. A word on the IC50: it is the concentration needed to halve the response being measured. Read a low IC50 as higher potency.

This assay deals with CEM cells HIV-1 protection, formazan growth assay. The experiment in a line: NCI AIDS Antiviral Assay. To be noted: for IC50: measured here: growth of uninfected CEM cells. The method, boiled down:
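Protection of CEM cells against HIV-1 was scored from cell growth (soluble formazan) across five concentrations, with parallel uninfected cells. Lack of protection may reflect toxicity.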

Activity calls are given as the source filed them.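 How the source made its calls: active means compounds giving half or more protection of infected cells from virus-caused growth loss, again on retest; inactive means the rest.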

For the compound `C#CC1OC(C)(C)OC1C1OC(C)(C)OCC1O` (stereo unspecified), the result was inactive.
As to `Oc1ccc(N=C2CCC(=C(c3ccccc3)c3ccc(Nc4ccc(O)cc4)cc3)CC2)cc1`, the EC50 is more than 200 µM and the IC50 turned out to be 20.9 µM.
As to `CC1=NOC(=O)C1N=Nc1ccc(Br)c(C)c1` (stereo unspecified), the outcome was inactive.
Turning to `Cc1cc(CO)c(O)c(C(=O)CC2CC(=O)NC(=O)C2)c1`, the EC50 was more than 200 µM and the IC50 was determined as 57.5 µM.
For `CCOC(=O)c1nc2cc(C(F)(F)F)ccc2nc1Oc1ccc(OC)cc1`, in that order: more than 200 µM and 174 µM.
Take `Cc1cn(C2CC(O[Si](C)(C)C(C)(C)C)C(C/[N+]([O-])=N\Nc3ccc([N+](=O)[O-])cc3)O2)c(=O)[nH]c1=O` (stereo unspecified): the EC50 was more than 200 µM and the IC50 worked out at 3.31 µM.
For `Nc1nc(N)c(C2=CCNCC2)c(=O)[nH]1` the same measures were more than 200 µM and more than 200 µM.
For `Nc1[nH]nc2nc3n(c(=O)c12)CCCCC3`, in that order: more than 45.7 µM and more than 45.7 µM.
For `N/N=C1/CCCc2nonc21` the same measures were more than 200 µM and more than 200 µM.
As to `CCCNC(=O)SCc1ccccc1`, the result was inactive.
In the case of `Nc1[nH]c(=O)[nH]c(=O)c1Cc1cccc(Cl)c1`, the EC50 is more than 200 µM and the IC50 was 39.8 µM.
For `COc1ccc(CCNC(=O)Cc2ccccc2CO)cc1OC`, in that order: more than 200 µM and more than 200 µM.
For `O=C(c1ccccc1)c1ccc2cccc(O)c2n1`, in that order: more than 75.9 µM and 50.1 µM.
As for `C=CCn1nnc2ccccc2c1=O`, the EC50 is more than 692 µM and the 50% inhibitory concentration (IC50) is more than 692 µM.
Turning to `Cc1c(Cl)c(=O)oc2cc(O)ccc12`, the EC50 is more than 324 µM and the IC50 turned out to be 174 µM.
For the compound `O=S(O)CCCSSc1ccccc1`, the result was inactive.
On to `CCN1N=CSC12C(=O)N(c1ccccc1)C(=O)N2c1ccccc1` (stereo unspecified), for which the result was inactive.
Regarding `CC1CN=C(NS(=O)(=O)c2cc(C(=O)Nc3ccc(Cl)cc3)c(Cl)cc2S)NN1` (stereo unspecified), the EC50 was more than 200 µM and the IC50 was 14.8 µM.
For `COc1cccc2c(=O)c3ccccc3oc12` the same measures were more than 200 µM and more than 200 µM.
For `O=C1OC(c2ccccc2)=N/C1=C\c1ccc2ccccc2c1`, in that order: more than 17.4 µM and more than 17.4 µM.
For `CCCCCCCCCCCCOC(=N)N1CCOCC1` the same measures were more than 91.2 µM and 4.47 µM.
For the compound `O=C(COC(=O)c1cccc2c(=O)c3ccccc3[nH]c12)Nc1ccccc1`, the result was inactive.
Turning to `COC1/C=C/OC2(C)Oc3c(C)c(O)c4c(O)c(cc(OCC(=O)N5CCCCCC5)c4c3C2=O)NC(=O)/C(C)=C\C=C\C(C)C(O)C(C)C(O)C(C)C(OC(C)=O)C1C` (stereo unspecified), the EC50 was more than 200 µM and the IC50 was 39.8 µM.
For the compound `Cc1ccccc1C(=O)c1ccccc1C(=O)O`, the EC50 was 200 µM and the half-maximal inhibitory concentration (IC50) amounted to 617 µM.
Turning to `O=C1/C(=C/c2ccccc2)CC/C1=C\c1ccccc1`, the outcome was inactive.
For the compound `CCC1C(NC(=O)OC)C(=O)N1[C@@H](C)c1ccccc1` (stereo partly specified), the EC50 is more than 200 µM and the half-maximal inhibitory concentration (IC50) was more than 200 µM.
For the compound `O=C1NC2NC(=O)NC2N1` (stereo unspecified), the EC50 was more than 479 µM and the IC50 was more than 479 µM.
Consider `O=C(Nc1ccccn1)c1ccccc1[Se][Se]c1ccccc1C(=O)Nc1ccccn1`, for which the 50% effective concentration (EC50) is 3.55 µM and the 50% inhibitory concentration (IC50) was 8.13 µM.
For `CC(C(=O)O)n1[se]c2ccccc2c1=O` (stereo unspecified), in that order: 12.6 µM and 120 µM.
For `C1=NCCNc2nc3ccccc3cc2C=NCCNc2nc3ccccc3cc21`, in that order: more than 200 µM and more than 200 µM.
For the compound `Cn1nc(N)nc1N=S(C)(C)=N`, the EC50 is more than 1320 µM and the IC50 was more than 1320 µM.
In the case of `COc1cc(CC(=O)O)c([N+](=O)[O-])cc1OC`, the EC50 is more than 1020 µM and the IC50 turned out to be 891 µM.
For `Cc1ccc(Nc2nnc(CSc3ccc(Cl)cc3)s2)c(S(=O)(=O)O)c1` the same measures were more than 200 µM and 148 µM.
Turning to `O=c1[nH]nc(-c2ccccc2)n1O`, the EC50 was more than 200 µM and the IC50 was more than 200 µM.
On to `COC(=O)C(/C(=N/NC(N)=O)C(=O)Nc1ccc(C)cc1)c1nc2ccc([N+](=O)[O-])cc2[nH]c1=O` (stereo unspecified), for which the EC50 was more than 141 µM and the IC50 was more than 141 µM.
For the compound `O=c1oc2ccccc2cc1-c1nc2ccccc2c(=O)[nH]1`, the EC50 is more than 100 µM and the IC50 was more than 100 µM.
With `c1ccc(N2N=NC3CCCC32N2CCCCC2)cc1` (stereo unspecified), the EC50 was more than 200 µM and the IC50 is 110 µM.
For `CCOc1cc(/C=C/c2c(C#N)c(=O)oc3ccc(C)cc23)ccc1O` the same measures were more than 25.1 µM and 4.47 µM.
In the case of `C=C1CCCCCCCCC/C=C/1SCCCSC`, the EC50 was more than 200 µM and the half-maximal inhibitory concentration (IC50) is more than 200 µM.
For `N#CCN(Cc1ccccc1)[C@@H]1CCC[C@]1(O)C#Cc1ccc2c(c1)OCO2`, the EC50 is more than 200 µM and the 50% inhibitory concentration (IC50) was found to be 20.4 µM.
For `Cn1cnc([N+](=O)[O-])c1Sc1nc2cccnc2s1` the same measures were more than 170 µM and 4.57 µM.
For `COc1ccc(C2SCC(=O)N2c2ccc(-c3ccc(-n4c(-c5ccccc5)nc5ccccc5c4=O)cc3)cc2)cc1` (stereo unspecified) the same measures were more than 200 µM and 33.9 µM.
For the compound `COc1ccccc1/C=C1/Sc2scc(CC(=O)Nc3ccccc3)[n+]2C1=O`, the outcome was inactive and the 50% inhibitory concentration (IC50) is 28.8 µM.
On to `Cc1nc2c(o1)C(=Nc1ccc(I)cc1)c1ccccc1C2=Nc1ccc(I)cc1`, for which the result was inactive.
On to `COC=C(c1cc(Br)c(OC)c(C(=O)OC)c1)c1cc(Br)c(OC)c(C(=O)OC)c1`, for which the EC50 was more than 200 µM and the 50% inhibitory concentration (IC50) stood at 13.5 µM.
With `COc1cc(-c2ccc(Br)[nH]2)[nH]c1C=NCC(C)C`, the EC50 is more than 200 µM and the IC50 was 10.5 µM.
Regarding `O=C1CC2C(=O)N(Cc3ccccc3)C1C(S(=O)(=O)c1ccccc1)C2S(=O)(=O)c1ccccc1` (stereo unspecified), the outcome was inactive.
On to `COC(=O)[C@@]1(C)CCC[C@]2(C(=O)O)C3Cc4occc4[C@H](C)[C@@H]3CCC21` (stereo partly specified), for which the EC50 was more than 200 µM and the half-maximal inhibitory concentration (IC50) was found to be 105 µM.
On to `CCN(CC)CCNc1ccc([N+](=O)[O-])c2nc3ccccc3c(N)c12`, for which the EC50 is more than 100 µM and the IC50 amounted to 0.575 µM.
For `COc1ccc(I)c(CCC(C(=O)O)C2=CCC3(CC2)OCCO3)c1` (stereo unspecified) the same measures were more than 145 µM and more than 145 µM.
As to `COc1ccc2c(c1)C/C(=C\c1ccc(O)c(OC)c1)C2=O`, the EC50 is more than 200 µM and the IC50 is more than 200 µM.
For the compound `CC(=O)NC(=O)C(C(C)=O)c1ccccc1` (stereo unspecified), the EC50 is more than 1150 µM and the IC50 was more than 1150 µM.
As for `CC1(Cl)C(=O)NC(=O)N([C@H]2C[C@H](O)[C@@H](CO)O2)C1N=[N+]=[N-]` (stereo partly specified), the EC50 is more than 200 µM and the concentration for half-maximal inhibition (IC50) is more than 200 µM.
For the compound `COc1cc(CNCc2cc(OC)c(OC)c(OC)c2)cc(OC)c1OC`, the EC50 is more than 200 µM and the IC50 is more than 200 µM.
Take `CCCCCCCCCCCC1=C(NCCS)C(=O)C=C(NCCS)C1=O`: the EC50 was more than 1.26 µM and the IC50 was more than 1.26 µM.
